The test has as its target T1, CDC2-like kinase-1 (CLK1) (Mus musculus, UniProt P22518).
T1 construct: Recombinant GST-CLK1
In words: radiometric kinase assay with […] [gamma-33P] ATP, dose-response (n = […]). In kind it is biochemical.

T1 sequence (P22518 whole entry): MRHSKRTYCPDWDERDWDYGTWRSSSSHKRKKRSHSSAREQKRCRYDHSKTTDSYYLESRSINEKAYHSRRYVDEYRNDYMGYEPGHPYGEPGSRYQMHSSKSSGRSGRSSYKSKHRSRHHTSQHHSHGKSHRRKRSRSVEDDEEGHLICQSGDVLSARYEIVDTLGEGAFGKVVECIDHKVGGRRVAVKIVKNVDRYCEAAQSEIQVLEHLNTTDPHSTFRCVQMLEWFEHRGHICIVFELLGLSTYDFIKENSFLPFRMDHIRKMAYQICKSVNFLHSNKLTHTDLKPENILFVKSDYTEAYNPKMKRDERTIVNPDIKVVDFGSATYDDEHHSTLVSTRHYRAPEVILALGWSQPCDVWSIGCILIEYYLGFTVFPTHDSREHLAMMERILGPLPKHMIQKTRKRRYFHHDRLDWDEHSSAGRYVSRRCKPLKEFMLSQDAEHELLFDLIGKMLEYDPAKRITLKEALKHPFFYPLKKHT

`CC(C)=CCc1c(O)c(O)c(O)c2c1CC(=O)OC2C` (stereo not shown) [compound 3, dihydrosecofuscin] had an IC50 of 56.1 µM. This lies in the double-digit micromolar range.

These data come from PMC5408257, “Bioactive Metabolites from the Deep Subseafloor Fungus Oidiodendron griseum UBOCC-A-114129” (Marine Drugs, 2017).
